This data set concerns CCRIS mutagenicity, Ames/micronucleus/aberration tests. Briefly: CCRIS mutagenicity studies.
Where [1] appears, read: Test System: AMES SALMONELLA TYPHIMURIUM, Strain/Indicator: TA98, Metabolic Activation: NONE, Method: PREINCUBATION
Where [2] appears, read: Test System: AMES SALMONELLA TYPHIMURIUM, Strain/Indicator: TA100, Metabolic Activation: NONE, Method: PREINCUBATION

The source made the active and inactive calls. The rule behind the calls is not given here.

For the compound `FC(Cl)(Cl)Cl`, the mutagenic call by setting is: (Test System: AMES SALMONELLA TYPHIMURIUM, Strain/Indicator: TA98, Metabolic Activation: HAMSTER, LIVER, S-9, AROCLOR 1254 (10%), Method: PREINCUBATION) “inactive; negative”; (Test System: AMES SALMONELLA TYPHIMURIUM, Strain/Indicator: TA98, Metabolic Activation: NONE, Method: GAS EXPOSURE) “inactive; negative”; under setting [1], “inactive; negative”; (Test System: AMES SALMONELLA TYPHIMURIUM, Strain/Indicator: TA98, Metabolic Activation: RAT LIVER S-9, PHENOBARBITAL AND BETA-NAPHTHOFLAVONE (40%), Method: GAS EXPOSURE) “inactive; negative”; (Test System: AMES SALMONELLA TYPHIMURIUM, Strain/Indicator: TA98, Metabolic Activation: RAT, LIVER, S-9, AROCLOR 1254 (10%), Method: PREINCUBATION) “inactive; negative”; (Test System: AMES SALMONELLA TYPHIMURIUM, Strain/Indicator: TA100, Metabolic Activation: HAMSTER, LIVER, S-9, AROCLOR 1254 (10%), Method: PREINCUBATION) “inactive; negative”. Besides, the mutagenic call is, setting by setting: (Test System: AMES SALMONELLA TYPHIMURIUM, Strain/Indicator: TA100, Metabolic Activation: NONE, Method: GAS EXPOSURE) “inactive; negative”; under setting [2], “inactive; negative”; (Test System: AMES SALMONELLA TYPHIMURIUM, Strain/Indicator: TA100, Metabolic Activation: RAT LIVER S-9, PHENOBARBITAL AND BETA-NAPHTHOFLAVONE (40%), Method: GAS EXPOSURE) “inactive; negative”; (Test System: AMES SALMONELLA TYPHIMURIUM, Strain/Indicator: TA100, Metabolic Activation: RAT, LIVER, S-9, AROCLOR 1254 (10%), Method: PREINCUBATION) “inactive; negative”; (Test System: AMES SALMONELLA TYPHIMURIUM, Strain/Indicator: TA1535, Metabolic Activation: HAMSTER, LIVER, S-9, AROCLOR 1254 (10%), Method: PREINCUBATION) “inactive; negative”; (Test System: AMES SALMONELLA TYPHIMURIUM, Strain/Indicator: TA1535, Metabolic Activation: NONE, Method: GAS EXPOSURE) “inactive; negative”. In addition, the mutagenic call (Test System: AMES SALMONELLA TYPHIMURIUM, Strain/Indicator: TA1535, Metabolic Activation: NONE, Method: PREINCUBATION) was “inactive; negative”; the mutagenic call (Test System: AMES SALMONELLA TYPHIMURIUM, Strain/Indicator: TA1535, Metabolic Activation: RAT LIVER S-9, PHENOBARBITAL AND BETA-NAPHTHOFLAVONE (40%), Method: GAS EXPOSURE) was “inactive; negative”; the mutagenic call (Test System: AMES SALMONELLA TYPHIMURIUM, Strain/Indicator: TA1535, Metabolic Activation: RAT, LIVER, S-9, AROCLOR 1254 (10%), Method: PREINCUBATION) was “inactive; negative”; the mutagenic call (Test System: AMES SALMONELLA TYPHIMURIUM, Strain/Indicator: TA1537, Metabolic Activation: HAMSTER, LIVER, S-9, AROCLOR 1254 (10%), Method: PREINCUBATION) is “inactive; negative”; the mutagenic call (Test System: AMES SALMONELLA TYPHIMURIUM, Strain/Indicator: TA1537, Metabolic Activation: NONE, Method: GAS EXPOSURE) was “inactive; negative”; the mutagenic call (Test System: AMES SALMONELLA TYPHIMURIUM, Strain/Indicator: TA1537, Metabolic Activation: NONE, Method: PREINCUBATION) was “inactive; negative”. The mutagenic call by setting is: (Test System: AMES SALMONELLA TYPHIMURIUM, Strain/Indicator: TA1537, Metabolic Activation: RAT LIVER S-9, PHENOBARBITAL AND BETA-NAPHTHOFLAVONE (40%), Method: GAS EXPOSURE) “inactive; negative”; (Test System: AMES SALMONELLA TYPHIMURIUM, Strain/Indicator: TA1537, Metabolic Activation: RAT, LIVER, S-9, AROCLOR 1254 (10%), Method: PREINCUBATION) “inactive; negative”; (Test System: E.COLI, Strain/Indicator: WP2UVRA, Metabolic Activation: NONE, Method: GAS EXPOSURE) “inactive; negative”; (Test System: E.COLI, Strain/Indicator: WP2UVRA, Metabolic Activation: RAT LIVER S-9, PHENOBARBITAL AND BETA-NAPHTHOFLAVONE (40%), Method: GAS EXPOSURE) “inactive; negative”; (Test System: Mouse lymphoma, Strain/Indicator: L5178Y (tk+/tk-), Metabolic Activation: None, Method: Suspension/plate) “inactive; negative”; (Test System: Mouse lymphoma, Strain/Indicator: L5178Y (tk+/tk-), Metabolic Activation: Rat, Liver, S-9, Aroclor 1254, Method: Suspension/plate) “inactive; inconclusive (previous evaluation negative)”.

Regarding `CC(=O)C1c2cccc(O)c2C(=O)c2c(O)cccc21`, the mutagenic call was “active; positive” (Test System: AMES SALMONELLA TYPHIMURIUM, Strain/Indicator: TA1537, Metabolic Activation: NONE, Method: STANDARD PLATE); “inactive; negative” (Test System: AMES SALMONELLA TYPHIMURIUM, Strain/Indicator: TA1537, Metabolic Activation: RAT, LIVER, S-9, PHENOBARBITAL AND BETA-NAPHTHOFLAVONE, Method: STANDARD PLATE); “inactive; negative” (Test System: E. COLI, Strain/Indicator: WP2, Metabolic Activation: NONE, Method: STANDARD PLATE); “inactive; negative” (Test System: E. COLI, Strain/Indicator: WP2, Metabolic Activation: RAT, LIVER, S-9, AROCLOR 1254, Method: STANDARD PLATE); “inactive; negative” (Test System: E. COLI, Strain/Indicator: WP2 UVRA, Metabolic Activation: NONE, Method: STANDARD PLATE); “inactive; negative” (Test System: E. COLI, Strain/Indicator: WP2 UVRA, Metabolic Activation: RAT, LIVER, S-9, AROCLOR 1254, Method: STANDARD PLATE).

As for `CC[C@]1(O)CC2CN(CCc3c([nH]c4ccccc34)[C@@](C(=O)OC)(c3cc4c(cc3OC)N(C=O)[C@H]3[C@@](O)(C(=O)OC)[C@H](OC(C)=O)[C@]5(CC)C=CCN6CC[C@]43[C@@H]65)C2)C1` (some centres not stated), the mutagenic call (End Point: In vitro micronucleus, Test System: Human lymphoblastoid TK6 cells, Metabolic Activation: None) is “active; positive (p<0.001)”; the mutagenic call (End Point: In vivo micronucleus, Test System: Peripheral blood lymphocytes, Species: Human, Strain/Sex: Workers (6 males and 9 females) and matched controls, Route: Occupational) is “active; positive, both mean micronuclei rate and mean micronucleated cells rate signific”; the mutagenic call under setting [1] was “inactive; negative”; the mutagenic call (Test System: AMES SALMONELLA TYPHIMURIUM, Strain/Indicator: TA98, Metabolic Activation: NONE, Method: STANDARD PLATE) was “inactive; negative”; the mutagenic call (Test System: AMES SALMONELLA TYPHIMURIUM, Strain/Indicator: TA98, Metabolic Activation: S-9, Method: PREINCUBATION) was “inactive; negative”; the mutagenic call (Test System: AMES SALMONELLA TYPHIMURIUM, Strain/Indicator: TA98, Metabolic Activation: S-9, Method: STANDARD PLATE) was “inactive; negative”. Further, the mutagenic call under setting [2] was “inactive; negative”; the mutagenic call (Test System: AMES SALMONELLA TYPHIMURIUM, Strain/Indicator: TA100, Metabolic Activation: NONE, Method: STANDARD PLATE) is “inactive; negative”; the mutagenic call (Test System: AMES SALMONELLA TYPHIMURIUM, Strain/Indicator: TA100, Metabolic Activation: S-9, Method: PREINCUBATION) was “inactive; negative”; the mutagenic call (Test System: AMES SALMONELLA TYPHIMURIUM, Strain/Indicator: TA100, Metabolic Activation: S-9, Method: STANDARD PLATE) is “inactive; negative”; the mutagenic call (Test System: AMES SALMONELLA TYPHIMURIUM, Strain/Indicator: TA1537, Metabolic Activation: S-9, Method: STANDARD PLATE) is “inactive; negative”; the mutagenic call (Test System: CHINESE HAMSTER V-79, Strain/Indicator: V-79 (HGPRT)/6-THIOGUANINE, Metabolic Activation: NONE) was “inactive; negative”. The mutagenic call runs as follows: (Test System: CHINESE HAMSTER V-79, Strain/Indicator: V-79/6-THIOGUANINE, Metabolic Activation: NONE, Method: SUSPENSION/PLATE) “inactive; negative”; (Test System: CHINESE HAMSTER V-79, Strain/Indicator: V-79/6-THIOGUANINE, Metabolic Activation: RAT, LIVER, HEPATOCYTES, Method: SUSPENSION/PLATE) “inactive; negative”; (Test System: E. COLI, Strain/Indicator: WP2 (HCR), Metabolic Activation: NONE, Method: STANDARD PLATE) “inactive; negative”; (Test System: E. COLI, Strain/Indicator: WP2 (HCR), Metabolic Activation: S-9, Method: STANDARD PLATE) “inactive; negative”; (Test System: MOUSE LYMPHOMA, Strain/Indicator: L5178Y (TK+/TK-), Metabolic Activation: NONE) “active; positive”.

The values are drawn from PubChem BioAssay AID1259407 (Chemical Carcinogenesis Research Information System (CCRIS), 2018).
